According to PMC3859497, “Expression and Biological Activity of the Cystine Knot Bioinsecticide PA1b (Pea Albumin 1 Subunit b)” (PLoS ONE, 2013):
No end group written: not given here.

What was measured:
[1] = system: Sitophilus oryzae sensitive weevil strain WAA42; assay: Toxicity assay on weevils, sensitive strain WAA42 (survival analysis on food pellets); format: in vivo; conditions: adult S. oryzae, sensitive strain WAA42, fed food pellets (wheat flour and water) incorporating peptide at 400 µg.g−1, days +/− SEM, LT50 calculated with SIMFIT
Protocol: (§1) Rice weevils (Sitophilus oryzae, Coleoptera) were reared on wheat seeds at 27.5°C and 70% RH. Tests and survival analysis were performed on adults feeding on food pellets (composed of wheat flour and water) incorporating PA1b (extracted from pea seeds for control tests or produced in tobacco) at 400 µg.g^−1, as described in detail in [10]. LT50 values were calculated using the SIMFIT software (http://www.simfit.man.ac.uk). The PA1b resistant strain, ISOR3, was reared in an identical way except that the weevils were fed on pea seeds rather than on wheat seeds.

[2] = system: Sitophilus oryzae PA1b resistant strain ISOR3; assay: Toxicity assay on weevils, PA1b resistant strain ISOR3; format: in vivo; conditions: adult S. oryzae, PA1b resistant strain ISOR3, food pellets incorporating peptide at 400 µg.g−1
Protocol: as §1

[3] = system: Sf9 insect cells; assay: Viability assay on Sf9 insect cells; format: cell-based, Spodoptera frugiperda; conditions: Sf9 cell viability assay, nM (SEM), HPLC purified tobacco-expressed isoforms
Protocol: Spodoptera frugiperda Sf9 cells were grown and used for viability assays, according to [23].

| Substance | TL50 WAA42 [1] | TL50 ISOR3 (mortality on resistant strain) [2] | CL50 Sf9 [3] | TL50 WAA42 ([1]; listed as 4) | TL50 WAA42 ([1]; listed as isoform 4) | TL50 WAA42 ([1]; listed as 3) | TL50 WAA42 ([1]; listed as isoform 3) | CL50 Sf9 ([3]; listed as 3) | CL50 Sf9 ([3]; listed as isoform 3) |
| --- | --- | --- | --- | --- | --- | --- | --- | --- | --- |
| ASCNGVCSPFEMPPCGTSACRCIPVGLFIGYCRNPSG (also: bicyclic or more (positions not given here)) [Isoform 2.2, pea PA1b isoform 2 (GenBank AJ574794), non-oxidized Met form, expressed in tobacco] | 8.9+−0.6 days | no mortality | 53 (16) nM |  |  |  |  |  |  |
| ASCNGVCSPFEMoxPPCGSSACRCIPVGLLIGYCRNPSG (bicyclic or more) [Isoform 1, pea PA1b isoform (GenBank AJ574795) expressed in N. benthamiana with the PA1-cassette] | 9.2+−0.9 days | no mortality | 82 (24) nM |  |  |  |  |  |  |
| ASCNGVCSPFEMoxPPCGSSACRCIPVGLVVGYCRHPSG (bicyclic or more) [Isoform 4, pea PA1b isoform (GenBank M13790 and AJ276882) expressed in tobacco] |  | no mortality | 269 ± 50 nM | 12.9+−1.1 days | 12.9 ± 1.1 days |  |  |  |  |
| ASCNGVCSPFEMoxPPCGTSACRCIPVGLFIGYCRNPSG (bicyclic or more) [Isoform 2.1, pea PA1b isoform 2 (GenBank AJ574794), oxidized Met form, expressed in tobacco] | 9.5+−0.7 days | no mortality | 82 (36) nM |  |  |  |  |  |  |
| ASCNGVCSPFEMoxPPCGTSACRCIPVGLVIGYCRNPSG (bicyclic or more) [Isoform 6, pea PA1b isoform (GenBank AJ574793) expressed in tobacco] | 8.9+−0.7 days | no mortality | 96 (22) nM |  |  |  |  |  |  |
| ASCNGVCSPFEMoxPPCGTSACRCIPVGLVVGYCRNPSG (bicyclic or more) [Isoform 5, pea PA1b isoform (GenBank M13709) expressed in tobacco] | 9.35+−0.7 days | no mortality | 99 (31) nM |  |  |  |  |  |  |
| ISCNGVCSPFDIPPCGSPLCRCIPAGLVIGNCRNPY G (bicyclic or more) [Isoform 3, pea PA1b isoform (GenBank AJ574796) expressed in tobacco] |  | no mortality |  |  |  | no mortality | completely inactive | >1500 nM | completely inactive |
